Measured values as given in patent publication US20050130982A1, “Oral therapeutic or preventative drugs for pollakiuria and urinary incontinence and oral sleep inducers, containing tropolone derivatives” (Nippon Kayaku Kabushiki Kaisha, priority 2002, published 2005).
Marks after values point to notes of the source that are not given here.

Key:
[1] = test system: rhythmic bladder contraction; assay: Effect on the rhythmic bladder contraction of rats (inhibition of micturition reflex); type: in vivo, rat; conditions: for Inhibition rate of the rhythmic contraction frequency of the bladder (%): anesthetized SD-IGS male rats, 120 minutes following administration; for Inhibitory activity on the frequency of the rhythmic bladder contraction (in words): rats
Description: The inhibitory effect on the micturition reflex was evaluated by the effect on the rhythmic bladder contraction according to the method of […] et al. (Rinshyoseiri 5, 540-547 (1975)). SD-IGS strain male rats were anesthetized by intraperitonial administration of urethane (1 g/kg). After exposing the bladder of the animal through an incision of the abdomen, a small incision was made on the top of the bladder from where a rubber balloon was inserted. The balloon was attached to a polyethylene tube connecting to a three way stopcock. The rest two ways of the stopcock were connected to a syringe for infusing water to the balloon and a transducer to measure the internal pressure of the bladder. The test animal was left for a while and then water was infused into the balloon until rhythmic contraction started. The change in the internal pressure of the bladder was recorded continuously by a polygraph. Drugs were dissolved in de-ionized water and administered through a catheter inserted in the duodenum. The effect of the drug was expressed as the inhibition ratio of the frequency of the rhythmic contraction of the bladder obtained by following formula. Inhibition rate (%)=100-{the frequency of the rhythmic contraction during 120 minutes following the administration (converted to the frequency per unit time)/the frequency of the rhythmic contraction 20 minutes immediately before the administration (converted to the frequency per unit time)×100}

[2] = Measurement of bioavailability by oral administration in rats; type: in vivo, rat; conditions: for Bioavailability (%): 6.25 mg/kg oral vs intravenous, ratio of AUC
Description: The intravenous administration group and the oral administration group consisted of 3 rats each (6 week-old male SD-IGS strain (Japan Charles River Co.)).
Each test drug was dissolved in physiological saline or ultra-pure water and administered to the rats intravenously or orally at 6.25 mg/kg. The blood samples were collected periodically and the plasma were prepared by the routine procedures. After deproteinization, the concentration of each test drug was measured by the LC/ESI(+) SRM method (liquid chromatography/electrospray-ionization (+) selected reaction monitoring method) and the bioavailability was calculated as the ratio (percent) of AUC (area under the blood concentration-time curve) of the oral administration and AUC of the intra-venous administration.

[3] = test system: sleep-inducing symptoms (drowsiness); assay: Observation of sleep-inducing symptoms in dogs after oral administration; type: in vivo, dog; conditions: male Beagle dogs
Description: Male dogs (Beagles) were orally administered with capsules filled with the test drug 1 and the symptoms were observed. The dosages were 3 mg/kg, 10 mg/kg, 30 mg/kg and 100 mg/kg.

[4] = molecular target: T1, human serotonin 1A receptor (Homo sapiens, UniProt P08908); assay: Serotonin 1A antagonism activity: affinity to the human serotonin 1A receptor in transfected CHO cells; type: binding; conditions: 10^−6 M test drug, 0.3 nM 8-OH-DPAT, CHO cells transfected with the human serotonin 1A receptor gene
T1 construct: expressed in transfected cells; host or cells: CHO cells
T1 sequence (P08908 1-422): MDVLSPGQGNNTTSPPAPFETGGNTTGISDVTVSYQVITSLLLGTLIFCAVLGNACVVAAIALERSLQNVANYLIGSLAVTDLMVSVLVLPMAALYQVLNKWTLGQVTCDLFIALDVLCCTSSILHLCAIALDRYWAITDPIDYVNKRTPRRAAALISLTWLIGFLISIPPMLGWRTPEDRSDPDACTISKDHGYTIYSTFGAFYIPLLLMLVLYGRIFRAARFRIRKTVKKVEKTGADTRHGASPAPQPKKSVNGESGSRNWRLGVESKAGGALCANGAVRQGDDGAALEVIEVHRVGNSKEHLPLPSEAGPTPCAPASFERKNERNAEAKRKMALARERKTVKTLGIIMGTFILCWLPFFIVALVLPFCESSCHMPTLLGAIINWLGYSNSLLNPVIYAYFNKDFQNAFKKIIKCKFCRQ
Description: The affinity of the test drug 1 to the human serotonin 1 A receptor was measured according to the method by Mulheron et al. (J. G. Mulheron et al., J. Biol. Chem., 269, 12954-12962 (1994)) by using the CHO cells transfected with the human serotonin 1A receptor gene.

[5] = Hygroscopic evaluation at 75% relative humidity; type: physicochemical; conditions: for Weight change (mg) in 75% relative humidity: 50 mg sample; for Increase in weight (hygroscopicity, in words): 75% relative humidity for 26 days
Description: Fifty mg of the each test sample was weighed exactly and placed in a closed container in which the relative humidity was kept at 75% and the bottom chamber was filled with saturated brine.

[6] = intra-duodenal administration of 6.25 mg/kg
[7] = oral capsule, group of more than 10 mg/kg

Row | Compound | Bioavailability (%) ([2]; hydrochloride, 6.25 mg/kg) | Weight change (mg) in 75% relative humidity ([5]; storage time 0 hours) | Weight change (mg) in 75% relative humidity ([5]; storage time 2 hours) | Weight change (mg) in 75% relative humidity ([5]; storage time 4 hours) | Weight change (mg) in 75% relative humidity ([5]; storage time 6 hours) | Weight change (mg) in 75% relative humidity ([5]; storage time 103 hours) | Weight change (mg) in 75% relative humidity ([5]; storage time 170 hours) | Weight change (mg) in 75% relative humidity ([5]; storage time 26 days) | Increase in weight (hygroscopicity, in words) [5] | Inhibition rate of the rhythmic contraction frequency of the bladder (%) ([1]; 12.5 mg/kg intra-duodenal) | Inhibition rate of the rhythmic contraction frequency of the bladder (%) ([1]; 6.25 mg/kg intra-duodenal) | Inhibitory activity on the frequency of the rhythmic bladder contraction (in words) [1, 6] | other results
1 | CC(C)c1ccc(CN2CCN(c3ccccc3)CC2)c(=O)c(OCc2ccccc2)c1.O=C(O)/C=C/C(=O)O [Control drug, 2-benzyloxy-4-isopropyl-7-[4-phenylpiperazinomethyl]-2,4,6-cycloheptatrien-1-one 1 fumarate, reference compound] |  |  |  |  |  |  |  |  |  | 4.81 +/− 4.09 (n = 6) % |  |  | Inhibitory activity on the frequency of the rhythmic bladder contraction (in words) ([1]; intra-duodenal, dose of 12.5 mg/kg): did not show significant activity; Bioavailability (%) [2]: 6%
2 | CC(C)c1ccc(CN2CCN(c3ncccn3)CC2)c(=O)c(O)c1.Cl [Test drug 2, 2-hydroxy-4-isopropyl-7-[4-(2-pyrimidyl)piperazinomethyl]-2,4,6-cycloheptatrien-1-one 1 hydrochloride] | 31% |  |  |  |  |  |  |  |  | 59.08 +/− 3.18* (n = 3) % | 26.84 +/− 5.33 (n = 4) % | marked inhibitory activity | 

Further lines, with some results ahead:

Row | Bioavailability (%) ([2]; hydrochloride, 6.25 mg/kg) | Weight change (mg) in 75% relative humidity ([5]; storage time 0 hours) | Weight change (mg) in 75% relative humidity ([5]; storage time 2 hours) | Weight change (mg) in 75% relative humidity ([5]; storage time 4 hours) | Weight change (mg) in 75% relative humidity ([5]; storage time 6 hours) | Weight change (mg) in 75% relative humidity ([5]; storage time 103 hours) | Weight change (mg) in 75% relative humidity ([5]; storage time 170 hours) | Weight change (mg) in 75% relative humidity ([5]; storage time 26 days) | Increase in weight (hygroscopicity, in words) [5] | Compound | Inhibition rate of the rhythmic contraction frequency of the bladder (%) ([1]; 12.5 mg/kg intra-duodenal) | Inhibition rate of the rhythmic contraction frequency of the bladder (%) ([1]; 6.25 mg/kg intra-duodenal) | Inhibitory activity on the frequency of the rhythmic bladder contraction (in words) [1, 6] | other results
3 | 57% |  |  |  |  |  |  |  |  | COc1cc(C(C)C)ccc(CN2CCN(c3ncccn3)CC2)c1=O.Cl [Test drug 1, 4-isopropyl-2-methoxy-7-[4-(2-pyrimidyl)piperazinomethyl]-2,4,6-cycloheptatrien-1-one 1 hydrochloride] |  | 48.89 +/− 5.43* % | marked inhibitory activity | Inhibition rate of the rhythmic contraction frequency of the bladder (%) ([1]; 3.13 mg/kg intra-duodenal): 43.48%; Plasma concentration in rats administered orally ([2]; oral 6.25 mg/kg): ~10^−6 M; Symptoms after oral administration ([3]; oral capsule, 3 mg/kg): no abnormal symptom was recognized; Drowsiness [3, 7]: drowsiness was observed; Time to drowsiness after administration [3, 7]: 20 to 30 min; Duration of drowsiness ([3]; oral, 30 mg/kg): 142 min; Duration of drowsiness ([3]; oral, 100 mg/kg): 318 min; Abnormal behavior other than drowsiness ([3]; oral, 3-100 mg/kg): No abnormal behavior other than drowsiness was observed; Drug concentration in the plasma ([3]; oral, 3-100 mg/kg): increased dose-dependently; Inhibition of the binding of 8-OH-DPAT to the human serotonin 1A receptor [4]: 77%
4 |  | 0.0 mg | 0.2 mg | 0.2 mg | 0.1 mg | 0.1 mg | 0.1 mg | 0.1 mg | No substantial increase | COc1cc(C(C)C)ccc(CN2CCN(c3ncccn3)CC2)c1=O.O=C(O)C(O)C(O)C(=O)O.O=C(O)C(O)C(O)C(=O)O [Test sample 1, 4-isopropyl-2-methoxy-7-[4-(2-pyrimidyl)piperazinomethyl]-2,4,6-cycloheptatrien-1-one 2 DL-tartrate] |  |  |  | 
5 |  | 0.0 mg | 0.3 mg | 0.4 mg | 0.1 mg | 0.1 mg | 0.2 mg | 0.2 mg | No substantial increase | COc1cc(C(C)C)ccc(CN2CCN(c3ncccn3)CC2)c1=O.O=C(O)/C=C/C(=O)O [Test sample 2, 4-isopropyl-2-methoxy-7-[4-(2-pyrimidyl)piperazinomethyl]-2,4,6-cycloheptatrien-1-one 1 fumarate] |  |  |  | 
